Data on two compounds can be found in article PMC11121924, “Protopine and Allocryptopine Interactions with Plasma Proteins” (International Journal of Molecular Sciences, 2024).

Test [1] addresses T1, human serum albumin (HSA) (Homo sapiens, UniProt P02768).
T1 construct: gene ALB
Briefly: UV-Vis absorption titration (Benesi-Hildebrand); dPhe marker displacement by fluorescence. Type of test: binding.

In test [2] the target is T2, α-1-acid glycoprotein (AAG, orosomucoid) (Homo sapiens, UniProt P02763).
T2 construct: gene ORM1
Briefly: UV-Vis absorption titration (Benesi-Hildebrand); quinaldine red displacement by fluorescence. Format: binding.

T2 sequence (P02763 19-201): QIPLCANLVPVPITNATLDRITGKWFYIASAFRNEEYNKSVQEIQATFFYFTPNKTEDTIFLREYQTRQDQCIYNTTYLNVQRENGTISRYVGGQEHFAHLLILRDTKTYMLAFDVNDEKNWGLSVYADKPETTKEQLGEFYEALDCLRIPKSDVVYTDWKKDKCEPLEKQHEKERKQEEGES
T1 sequence (P02768 25-609): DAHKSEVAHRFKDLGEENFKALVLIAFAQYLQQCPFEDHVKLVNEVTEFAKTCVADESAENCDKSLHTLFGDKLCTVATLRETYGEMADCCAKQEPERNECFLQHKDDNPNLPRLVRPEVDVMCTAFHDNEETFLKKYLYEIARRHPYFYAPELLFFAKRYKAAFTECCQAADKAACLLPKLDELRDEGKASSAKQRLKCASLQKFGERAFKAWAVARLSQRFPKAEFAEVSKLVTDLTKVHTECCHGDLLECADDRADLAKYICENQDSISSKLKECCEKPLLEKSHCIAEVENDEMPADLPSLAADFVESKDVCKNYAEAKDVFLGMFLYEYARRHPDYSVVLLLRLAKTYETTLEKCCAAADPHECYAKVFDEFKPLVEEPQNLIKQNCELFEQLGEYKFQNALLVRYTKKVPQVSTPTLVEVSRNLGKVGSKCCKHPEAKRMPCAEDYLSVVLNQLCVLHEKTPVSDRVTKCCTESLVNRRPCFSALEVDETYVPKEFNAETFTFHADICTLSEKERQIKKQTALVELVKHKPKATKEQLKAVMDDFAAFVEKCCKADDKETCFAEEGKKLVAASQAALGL

With `COc1ccc2c(c1OC)CN(C)CCc1cc3c(cc1C(=O)C2)OCO3` [ACP, allocryptopine], the Kd in test [1] was 19.9 µM; in test [2] (read-out: Kapp.10^4 [dm^3mol^-1] (converted)), 44.6 µM.

With `CN1CCc2cc3c(cc2C(=O)Cc2ccc4c(c2C1)OCO4)OCO3` [PP, protopine], the Kd in test [1] was 46.9 µM. In addition, the “Kapp.10^4 [dm^3mol^-1]” value in test [2] is recorded as 1.34 ± 0.0.03.
